Results reported in ChEMBL document CHEMBL3301361, “Experimental in vitro DMPK and physicochemical data on a set of publicly disclosed compounds”.
≈ marks a conversion by molar mass, not a printed value.

Assays:
in vitro = settings: human, plasma
physchem [1] = settings: pH 7.4 buffer
physchem [2] = settings: octan-1-ol/water

Row | Structure (SMILES) | fraction unbound at 5 h (in vitro; PPB) | solubility thermodynamic (physchem [1]) | logD (physchem [2]; pH 7.4, LogD7.4) | further results
1 | COc1ccc2ncc(=O)n(CCN3CC[C@@H](NCc4cc5c(cn4)OCCO5)[C@H](O)C3)c2c1 | 0.179 | – | – | –
2 | COc1ccc2ncc(=O)n(CCN3CC[C@@H](NCc4ccc5c(n4)NC(=O)CO5)[C@@H](OC)C3)c2c1 | 0.28 | – | – | –
3 | COc1ccc2ncc(=O)n(CCN3CC[C@@H](NCc4ccc5c(n4)NC(=O)CO5)[C@H](OC)C3)c2c1 | 0.179 | – | – | –
4 | O=C1NCCc2[nH]c(-c3ccncc3)cc21 | 0.586 | – | – | –
5 | Cc1csc(N)c1C(N)=O | 0.324 | – | – | –
6 | COc1ccc(-c2cc(O)nc(N)n2)cc1C#N | 0.126 | – | – | –
7 | CCc1[nH]c2nc(Sc3cnc4ccc[n+]([O-])c4c3)nc(N3CC[C@@H](N)C3)c2c1Cl | 0.204 | – | – | –
8 | NC1=NC(c2ccc(F)cc2)Cc2ccc(F)cc21 (stereo not drawn) | 0.329 | – | – | –
9 | O=C(NCC12CC3CC(CC(C3)C1)C2)c1cc(C(=O)N2CC3CNCC(C2)O3)ccc1Cl | 0.309 | – | – | –
10 | C[C@](N)(Cc1ccccc1)c1ccccc1 | – | – | – | fraction unbound at 5 h (in vitro): 0.179
11 | CC(C)Cc1c(C(=O)C(N)=O)c2c(OCC(=O)NS(C)(=O)=O)cccc2n1Cc1ccccc1 | – | – | – | fraction unbound at 5 h (in vitro): 0.0251
12 | COCCOc1cc2ncc(C(N)=O)c(Nc3ccc(F)cc3F)c2cc1N1CCN(C)CC1 | 0.454 | – | – | –
13 | COCCOc1cc2ncc(C(N)=O)c(Nc3cccc(Cl)c3Cl)c2cc1N1CCN(C)CC1 | 0.103 | – | – | –
14 | COCCOc1cc2ncc(C(N)=O)c(Nc3cc(C)ccc3F)c2cc1N1CCN(C)CC1 | 0.163 | – | – | –
15 | COCCOc1cc2ncc(C(N)=O)c(Nc3cccc(Cl)c3F)c2cc1N1CCN(C)CC1 | 0.392 | – | – | –
16 | CCOc1cc2ncc(C(N)=O)c(Nc3ccc(F)cc3F)c2cc1N1CCCN(C)CC1 | 0.304 | – | – | –
17 | O=C(NCC12CC3CC(CC(C3)C1)C2)c1cc(OCCNCCCO)ncc1Cl | 0.11 | – | – | –
18 | COc1cc2c(c(OC)c1OC)-c1ccc(O)cc1[C@@H](NC(C)=O)CC2 [N-ACETYLCOLCHINOL] | – | 813 µM (≈ 290 µg/mL) | – | logD (physchem [2]; pH 7.4): 1.81
19 | NC(=O)c1c(OCc2c(F)cc(Br)cc2F)nsc1NC(=O)NCCCCN1CCCC1 [OSI-632] | – | 77.6 µM (≈ 41.3 µg/mL) | 2.5 | –
20 | COc1ccc(Cc2nccc3cc(OC)c(OC)cc23)cc1OC [PAPAVERINE] | – | 38 µM (≈ 12.9 µg/mL) | – | logD (physchem [2]; pH 7.4): 2.81
21 | CCc1ccc(CCOc2ccc(CC3SC(=O)NC3=O)cc2)nc1 (stereo not drawn) [PIOGLITAZONE] | – | 2 µM (≈ 0.713 µg/mL) | 2.8 | –
22 | CC(=O)[C@H]1CC[C@H]2[C@@H]3CCC4=CC(=O)CC[C@]4(C)[C@H]3CC[C@]12C [PROGESTERONE] | – | 37.2 µM (≈ 11.7 µg/mL) | – | logD (physchem [2]; pH 7.4): 3.94
23 | Cn1c(=O)c(Oc2ccc(F)cc2F)cc2cnc(NC3CCOCC3)nc21 [R-1487] | – | 20.4 µM (≈ 7.92 µg/mL) | 2.76 | –
24 | Cn1c(C#N)ccc1-c1ccc2c(c1)C(C)(C)OC(=S)N2 [TANAPROGET] | – | 3.6 µM (≈ 1.07 µg/mL) | 3.4 | –
25 | COC1(c2cc(F)cc(OCc3ccc4c(ccc(=O)n4C)c3)c2)CCOCC1 [ZD-2138] | – | 3.2 µM (≈ 1.27 µg/mL) | 3.52 | –
26 | FC(F)c1nc2ccccc2n1-c1nc(N2CCOCC2)nc(N2CCOCC2)n1 [ZSTK-474] | – | 0.7 µM (≈ 0.292 µg/mL) | 3.04 | –

Further lines, with some results ahead:

Row | fraction unbound at 5 h (in vitro; PPB) | solubility thermodynamic (physchem [1]) | logD (physchem [2]; pH 7.4, LogD7.4) | Structure (SMILES) | further results
27 | 0.139 | – | – | COCCC(Oc1ncnc2c1cnn2-c1ccccc1OC)C(=O)Nc1ccc(C)cn1 (stereo not drawn) | –
28 | 0.299 | – | – | O=C(O)c1cn(Cc2ccccc2)c2cc(N3CCNCC3)c(F)cc2c1=O | –
29 | 0.142 | – | – | CN(C)CCNc1cc(-c2ccncc2)nc2ccccc12 | –
30 | 0.163 | – | – | CCOc1cc2ncc(C(N)=O)c(Nc3cccc(Cl)c3Cl)c2cc1N1CCN(C(=O)CO)CC1 | –
31 | 0.289 | – | – | CN1CCN(C(=O)c2cc(Cc3n[nH]c(=O)c4ccccc34)ccc2F)CC1 | –
32 | 0.36 | – | – | NC1=NC(c2ccc(F)cc2)Cc2ccccc21 (stereo not drawn) | –
33 | – | 436 µM (≈ 200 µg/mL) | 2.8 | O=C(N[C@@H](Cc1ccccc1)[C@@H](O)C(=O)N1C[C@@H](O)[C@@H](O)C1)c1cc2cc(Cl)ccc2[nH]1 [INGLIFORIB] | –
34 | – | 302 µM (≈ 92.8 µg/mL) | 2.9 | O=c1cc(N2CCOCC2)oc2c(-c3ccccc3)cccc12 [LY-294002] | –
35 | – | 4.7 µM (≈ 1.92 µg/mL) | 2.5 | NC1(c2ccc(-c3nc4ccn5c(=O)[nH]nc5c4cc3-c3ccccc3)cc2)CCC1 [MK-2206] | –
36 | – | 13.5 µM (≈ 5.35 µg/mL) | 2.28 | Nc1ccccc1NC(=O)c1ccc(CNc2nccc(-c3cccnc3)n2)cc1 [MOCETINOSTAT] | –
37 | – | 83.2 µM (≈ 35.6 µg/mL) | 3.1 | CCOC(=O)Nc1ccc2c(c1)N(C(=O)CCN1CCOCC1)c1ccccc1S2 [MORICIZINE] | –
38 | – | 2.2 µM (≈ 0.855 µg/mL) | 3.59 | COC(=O)C1=C(C)NC(C)=C(C(=O)OCC(C)C)C1c1ccccc1[N+](=O)[O-] (stereo not drawn) [NISOLDIPINE] | –
39 | – | 759 µM (≈ 301 µg/mL) | -0.5 | Nc1ncnc2c1C(=O)N(c1ccc([C@H]3CC[C@H](CC(=O)O)CC3)cc1)CCO2 [PF-04620110] | –
40 | – | 107 µM (≈ 53.8 µg/mL) | 3.31 | CCc1cccc(CC)c1NC(=O)N1Cc2n[nH]c(NC(=O)c3ccc(N4CCN(C)CC4)cc3)c2C1 [PHA-680632] | –
41 | – | 60.3 µM (≈ 24 µg/mL) | 1.85 | O=C(CO)N1CCC(c2[nH]nc(-c3ccc(Cl)cc3)c2-c2ccncn2)CC1 [SD-0006] | –
42 | – | 631 µM (≈ 170 µg/mL) | 0.82 | CC(=O)Nc1ccc(C(=O)Nc2ccccc2N)cc1 [TACEDINALINE] | –
43 | – | 52.5 µM (≈ 26.9 µg/mL) | – | C[C@@H]1CN(Cc2ccc(F)cc2)[C@@H](C)CN1C(=O)c1cc2c(C(=O)C(=O)N(C)C)cn(C)c2cc1Cl [TALMAPIMOD] | logD (physchem [2]; pH 7.4): 3.6
